Consider 24 molecules from patent US9169254B2, “Spiroimidazolone derivative” (Chugai Seiyaku Kabushiki Kaisha, priority 2009, dated 2015).

The assay addresses T1, human PTH1 receptor (Homo sapiens, UniProt Q03431).
T1 sequence (Q03431 27-593): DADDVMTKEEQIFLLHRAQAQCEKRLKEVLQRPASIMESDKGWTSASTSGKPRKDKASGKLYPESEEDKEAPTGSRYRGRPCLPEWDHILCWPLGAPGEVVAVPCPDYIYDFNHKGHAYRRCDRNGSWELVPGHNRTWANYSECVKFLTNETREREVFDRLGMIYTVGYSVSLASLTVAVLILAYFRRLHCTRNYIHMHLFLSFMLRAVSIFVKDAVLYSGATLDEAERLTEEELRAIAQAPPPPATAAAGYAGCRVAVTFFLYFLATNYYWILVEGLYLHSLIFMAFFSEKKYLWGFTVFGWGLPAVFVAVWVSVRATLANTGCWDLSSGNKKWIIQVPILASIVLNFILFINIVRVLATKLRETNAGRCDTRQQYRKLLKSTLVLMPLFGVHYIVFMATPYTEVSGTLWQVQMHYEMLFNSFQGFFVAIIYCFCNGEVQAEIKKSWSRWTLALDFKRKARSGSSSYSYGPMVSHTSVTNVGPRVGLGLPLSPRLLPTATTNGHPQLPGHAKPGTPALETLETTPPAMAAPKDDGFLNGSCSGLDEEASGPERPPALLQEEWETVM
Nature of the assay: In vitro cAMP signal activity in HKRK-B7 cells (LLC-PK1 cells overexpressing the human PTH1 receptor). In kind it is cell-based. The note with it: HKRK-B7 cells, compound at 1×10^−3 M.

Setting [1] is: cAMP produced as percentage of that produced by hPTH(1-34) at 100 nM.

For `Cc1cc(N(C)C(=O)OCCN(C)C)ccc1/C=C/S(=O)(=O)N1CCC2(CC1)N=C(c1cccc(OC(F)(F)F)c1)NC2=O` [Compound 466, Methyl-(3-methyl-4-{(E)-2-[4-oxo-2-(3-trifluoromethoxy-phenyl)-1,3,8-triaza-spiro[4.5]dec-1-ene-8-sulfonyl]-vinyl}-phenyl)-carbamic acid 2-dimethylamino-ethyl ester], the “cAMP production activity (%)” value ([…], 0.1 µM) was 23%.
On to `CC(=O)N(C)c1ccc(C)c(CCS(=O)(=O)N2CCC3(CC2)N=C(c2cccc(OC(F)(F)F)c2)NC3=O)c1` [Compound 265, N-methyl-N-(4-methyl-3-{2-[4-oxo-2-(3-trifluoromethoxy-phenyl)-1,3,8-triaza-spiro[4.5]dec-1-ene-8-sulfonyl]-ethyl}-phenyl)-acetamide], for which, under setting [1], the “cAMP production activity (%)” value amounted to 55%.
For `O=C1NC(c2ccc(Cl)cc2)=NC12CCN(S(=O)(=O)/C=C/c1cccc3c1ccn3C[C@H](O)CO)CC2` [Compound 250, 2-(4-chloro-phenyl)-8-{(E)-2-[1-((S)-2,3-dihydroxy-propyl)-1H-indol-4-yl]-ethenesulfonyl}-1,3,8-triaza-spiro[4.5]dec-1-en-4-one], the “cAMP production activity (%)” value under setting [1] is 62%.
The same measure, in the same setting: under `Cc1cc(N2C(=O)CNC2=O)ccc1CCS(=O)(=O)N1CCC2(CC1)N=C(C1CCC(CCC(F)F)CC1)NC2=O` (stereo not drawn) [Compound 956, 3-[4-(2-{2-[4-(3,3-difluoro-propyl)-cyclohexyl]-4-oxo-1,3,8-triaza-spiro[4.5]dec-1-ene-8-sulfonyl}-ethyl)-3-methyl-phenyl]-imidazolidine-2,4-dione] stands 87%.
Take `O=C1NC(c2cccc(OC(F)(F)F)c2)=NC12CCN(S(=O)(=O)CCc1ccc3c(ccn3C[C@H](O)CO)c1)CC2` [Compound 850, 8-{2-[1-((S)-2,3-dihydroxy-propyl)-1H-indol-5-yl]-ethanesulfonyl}-2-(3-trifluoromethoxy-phenyl)-1,3,8-triaza-spiro[4.5]dec-1-en-4-one]: the “cAMP production activity (%)” value under setting [1] stood at 82%.
Still for that read-out and setting: under `CCCCC1CCC(C2=NC3(CCN(S(=O)(=O)/C=C/c4ccc(N5C(=O)CNC5=O)cc4C)CC3)C(=O)N2)CC1` (stereo not drawn) [Compound 560, 3-(4-{(E)-2-[2-(4-Butyl-cyclohexyl)-4-oxo-1,3,8-triaza-spiro[4.5]dec-1-ene-8-sulfonyl]-vinyl}-3-methyl-phenyl)-imidazolidine-2,4-dione] stands 66%; under `Cc1cc2nc(N)oc2c(C)c1CCS(=O)(=O)N1CCC2(CC1)N=C(C1CCC(C)CC1)NC2=O` (stereo not drawn) [Compound 1178, 8-[2-(2-Amino-5,7-dimethyl-benzoxazol-6-yl)-ethanesulfonyl]-2-(4-methyl-cyclohexyl)-1,3,8-triaza-spiro[4.5]dec-1-en-4-one], 84%.
Still for that read-out and setting: under `O=C1NC(c2ccccc2-c2ccccc2)=NC12CCN(S(=O)(=O)c1cccc(Cl)c1)CC2` [Compound 10, 2-biphenyl-2-yl-8-(3-chloro-benzenesulfonyl)-1,3,8-triaza-spiro[4.5]dec-1-en-4-one] stands 2.4%; under `Cc1cc(C(=O)N2CCC(C)(O)CC2)cc(C)c1/C=C/S(=O)(=O)N1CCC2(CC1)N=C(c1ccc(OCCCC(F)(F)F)c(C(F)(F)F)c1)NC2=O` [Compound 1204, 8-{(E)-2-[4-(4-hydroxy-4-methyl-piperidine-1-carbonyl)-2,6-dimethyl-phenyl]-ethenesulfonyl}-2-[4-(4,4,4-trifluoro-butoxy)-3-trifluoromethyl-phenyl]-1,3,8-triaza-spiro[4.5]dec-1-en-4-one], 83%; under `Cc1cc(C(=O)N2CCC(O)(CF)CC2)cc(C)c1/C=C/S(=O)(=O)N1CCC2(CC1)N=C(c1ccc(Cl)c(Cl)c1)NC2=O` [Compound 1257, 2-(3,4-dichloro-phenyl)-8-{(E)-2-[4-(4-fluoromethyl-4-hydroxy-piperidine-1-carbonyl)-2,6-dimethyl-phenyl]-ethenesulfonyl}-1,3,8-triaza-spiro[4.5]dec-1-en-4-one], 98%.
Same read-out and setting: under `Cc1cc(C(=O)N(C)C)ccc1CCS(=O)(=O)N1CCC2(CC1)N=C(c1c(F)cccc1F)NC2=O` [Compound 78, 4-{2-[2-(2,6-difluoro-phenyl)-4-oxo-1,3,8-triaza-spiro[4.5]dec-1-ene-8-sulfonyl]-ethyl}-3,N,N-trimethyl-benzamide] stands 31%; under `Cc1cc(CNC(=O)OC(C)(C)C)ccc1CCS(=O)(=O)N1CCC2(CC1)N=C(c1ccc(F)c(C(F)(F)F)c1)NC2=O` [Compound 164, (4-{2-[2-(4-fluoro-3-trifluoromethyl-phenyl)-4-oxo-1,3,8-triaza-spiro[4.5]dec-1-ene-8-sulfonyl]-ethyl}-3-methyl-benzyl)-carbamic acid tert-butyl ester], 45%; under `CCC[S+]([O-])CCCCCC1=NC2(CCN(S(=O)(=O)/C=C/c3c(C)cc(N(C)C(N)=O)cc3C)CC2)C(=O)N1` (stereo not drawn) [Compound 1316, 1-[3,5-Dimethyl-4-((E)-2-{4-oxo-2-[5-(propane-1-sulfinyl)-pentyl]-1,3,8-triaza-spiro[4.5]dec-1-ene-8-sulfonyl}-vinyl)-phenyl]-1-methyl-urea], 2.9%.
Consider `CC(=O)Nc1ccc(CCS(=O)(=O)N2CCC3(CC2)N=C([C@H]2CC[C@@H](CC(F)(F)C(F)(F)F)CC2)NC3=O)c(C)c1` [Compound 1069, N-[3-methyl-4-(2-{4-oxo-2-[4-(2,2,3,3,3-pentafluoro-propyl)-cyclohexyl]-1,3,8-triaza-spiro[4.5]dec-1-ene-8-sulfonyl}-ethyl)-phenyl]-acetamide], for which the “cAMP production activity (%)” value under setting [1] stood at 79%.
Regarding `Cc1cc(OC[C@H](O)CO)cc(C)c1/C=C/S(=O)(=O)N1CCC2(CC1)N=C(c1cccc(C(F)(F)F)c1F)NC2=O` [Compound 243, 8-{(E)-2-[4-((R)-2,3-dihydroxy-propoxy)-2,6-dimethyl-phenyl]-ethenesulfonyl}-2-(2-fluoro-3-trifluoromethyl-phenyl)-1,3,8-triaza-spiro[4.5]dec-1-en-4-one], the “cAMP production activity (%)” value under setting [1] amounted to 80%.
In the case of `CC(=O)Nc1cc(C)c(/C=C/S(=O)(=O)N2CCC3(CC2)N=C(C2CCCCC2)NC3=O)c(C)c1` [Compound 204, N-{4-[(E)-2-(2-Cyclohexyl-4-oxo-1,3,8-triaza-spiro[4.5]dec-1-ene-8-sulfonyl)-vinyl]-3,5-dimethyl-phenyl}-acetamide], under setting [1], the “cAMP production activity (%)” value worked out at 110%.
On the same count and under the same terms, under `CCCCC1CCC(NC2=NC3(CCN(S(=O)(=O)CCc4ccc(C(=O)N(C)C)cc4C)CC3)C(=O)N2)CC1` (stereo not drawn) [Compound 1404, 4-{2-[2-(4-butyl-cyclohexylamino)-4-oxo-1,3,8-triaza-spiro[4.5]dec-1-ene-8-sulfonyl]-ethyl}-3,N,N-trimethyl-benzamide] stands 64%.
Regarding `Cc1cc(C(=O)N2CC[C@@H](O)C2)ccc1CCS(=O)(=O)N1CCC2(CC1)N=C(c1cccc(C(F)(F)F)c1)NC2=O` [Compound 355, 8-{2-[4-((R)-3-hydroxy-pyrrolidine-1-carbonyl)-2-methyl-phenyl]-ethanesulfonyl}-2-(3-trifluoromethyl-phenyl)-1,3,8-triaza-spiro[4.5]dec-1-en-4-one], the “cAMP production activity (%)” value under setting [1] is 84%.
For `CCCC=C1CCC(C2=NC3(CCN(S(=O)(=O)CCc4ccc(NC(C)=O)cc4C)CC3)C(=O)N2)CC1` (stereo not drawn) [Compound 1079, N-(4-{2-[2-(4-Butylidene-cyclohexyl)-4-oxo-1,3,8-triaza-spiro[4.5]dec-1-ene-8-sulfonyl]-ethyl}-3-methyl-phenyl)-acetamide], the “cAMP production activity (%)” value under setting [1] stood at 91%.
Regarding `Cc1cc(N(C)C(N)=O)cc(C)c1CCS(=O)(=O)N1CCC2(CC1)N=C(CCCCCCCCCCCN)NC2=O` [Compound 1366, 1-(4-{2-[2-(11-Amino-undecyl)-4-oxo-1,3,8-triaza-spiro[4.5]dec-1-ene-8-sulfonyl]-ethyl}-3,5-dimethyl-phenyl)-1-methyl-urea], under setting [1], the “cAMP production activity (%)” value was determined as 103%.
On the same count and under the same terms, under `CC(=O)Nc1ccc(CCS(=O)(=O)N2CCC3(CC2)N=C([C@H]2CC[C@H](CCC(F)F)CC2)NC3=O)c(C)c1` [Compound 955, N-[4-(2-{2-[4-(3,3-Difluoro-propyl)-cyclohexyl]-4-oxo-1,3,8-triaza-spiro[4.5]dec-1-ene-8-sulfonyl}-ethyl)-3-methyl-phenyl]-acetamide] stands 79%.
On the same count and under the same terms, under `O=C(Nc1ccc(CCS(=O)(=O)N2CCC3(CC2)N=C(C2CCCCC2)NC3=O)c(C(F)(F)F)c1)c1ccccc1` [Compound 662, N-{4-[2-(2-cyclohexyl-4-oxo-1,3,8-triaza-spiro[4.5]dec-1-ene-8-sulfonyl)-ethyl]-3-trifluoromethyl-phenyl}-benzamide] stands 23%; under `CCCCCC[C@@H]1CCC[C@H](C2=NC3(CCN(S(=O)(=O)CCc4c(C)cc(N(C)C(N)=O)cc4C)CC3)C(=O)N2)C1` [Compound 1143, 1-(4-{2-[2-((1S,3R)-3-Hexyl-cyclohexyl)-4-oxo-1,3,8-triaza-spiro[4.5]dec-1-ene-8-sulfonyl]-ethyl}-3,5-dimethyl-phenyl)-1-methyl-urea], 78%.
For the molecule `Cc1cc2ccc1CCS(=O)(=O)N1CCC3(CC1)N=C(NC3=O)c1cc(cc(C(F)(F)F)c1)OCCCCCN(C)C2=O` [Compound 1409], under setting [1], the “cAMP production activity (%)” value is reported as 13%.
